Measurements from publication PMC10065799, “High-throughput profiling of sequence recognition by tyrosine kinases and SH2 domains using bacterial peptide display” (eLife, 2023).
Values belong to the sequence of their own block, whether it stands above or below them.

Legend:
Assay in all cases: pTyr-Var library bacterial peptide display kinase screen (enrichment scores)
c-Abl kinase domain = target: T1, c-Abl kinase domain (Mus musculus, UniProt P00520); assay type: biochemical;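 also: log2 fold change in enrichment of variant over reference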
T1 sequence (P00520 242-493 limits assumed): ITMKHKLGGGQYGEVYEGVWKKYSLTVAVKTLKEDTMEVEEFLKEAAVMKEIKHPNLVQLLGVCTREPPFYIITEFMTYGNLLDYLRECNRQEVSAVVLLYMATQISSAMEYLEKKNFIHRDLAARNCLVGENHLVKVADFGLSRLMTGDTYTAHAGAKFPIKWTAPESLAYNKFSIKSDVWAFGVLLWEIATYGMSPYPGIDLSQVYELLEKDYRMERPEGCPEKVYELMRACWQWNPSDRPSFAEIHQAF

Fer kinase domain = assay type: biochemical, mouse; conditions: sheet "Fer"
c-Src kinase domain = c-Src kinase domain (Homo sapiens, UniProt P12931); assay type: biochemical; conditions: sheet "Src";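 also: log2 fold change in enrichment of variant over reference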
EPHB2 kinase domain = assay type: biochemical, human; conditions: sheet EPHB2
EPHB1 kinase domain = assay type: biochemical, human; conditions: for Screen: sheet EPHB1, effect of the variant peptide relative to its reference peptide in the pTyr-Var library screen (enrichment scores); for Screen (variant relative to reference peptide, measured in the pTyr-Var library screen): sheet "EPHB1", variant seq vs reference seq, bacterial peptide display enrichment
[1] = fig5-data2, sheet "Abl", Screen for the variant/reference peptide pair, pTyr-Var library
[2] = value of the variant peptide against its reference peptide in the pTyr-Var library screen with Fer
[3] = variant peptide versus its reference peptide in the pTyr-Var library screen
[4] = sheet "Abl", effect of variant peptide relative to its reference peptide in pTyr-Var library screen (enrichment)
[5] = effect of the variant peptide relative to its reference peptide in the pTyr-Var library screen
[6] = effect of variant peptide relative to its reference peptide in the pTyr-Var library screen (enrichment scores)
[7] = variant peptide relative to its reference peptide, pTyr-Var library screen enrichment
[8] = effect of the variant relative to its reference peptide in the pTyr-Var library screen

Screen (c-Abl kinase domain; [1]): -0.3155
Sequence: AALLNYKAGRD [GRIN2A_Y737_V734L]

Sequence: ACEVLYNIVFM [NCF2_Y125_A128V]
Screen (Fer kinase domain; [2]): 0.5953 | Screen (c-Src kinase domain; [3]): 0.004351

Sequence: ADDSFYTVRSA [ZAP70_Y493_A495V_YF]
Screen (c-Src kinase domain; [3]): 1.093 | Screen (c-Abl kinase domain; [4]): -3.301

Sequence: AEDKPYAELWT [MPI_Y46_M51T]
Screen (Fer kinase domain; [2]): -0.5845 | Screen (c-Src kinase domain; [5]): -0.4439

Sequence: AHARMYGVLPW [PLP1_Y207_D203H]
Screen (EPHB2 kinase domain; [6]): -2.408 | Screen (c-Src kinase domain; [3]): -1.491

Screen (c-Abl kinase domain; [1]): 0.9485
Sequence: AKKMKYFEGVS [PRKDC_Y682_I680M]

Sequence: ANAFIYDVQLP [L1CAM_Y420_V421D_YF]
Screen (EPHB1 kinase domain): 1.352 | Screen (c-Src kinase domain; [5]): 2.894

Screen (c-Abl kinase domain; [1]): 1.454
Sequence: CEAIEYLESKQ [BTK_Y511_M509I]

Screen (c-Abl kinase domain; [1]): 0.2762
Sequence: CENCHYPILPL [LCK_Y25_V28L]

Screen (Fer kinase domain; [2]): -0.07246
Sequence: CKSIHYDLVFL [COL22A1_Y37_V35I]

Sequence: DFFDLYGGKKF [PTPN11_Y66_E69K_YF]
Screen (c-Src kinase domain; [3]): 0.3147

Sequence: DGQFVYKLTDF [TBK1_Y153_S151F]
Screen (c-Src kinase domain; [3]): -0.3973

Screen (c-Abl kinase domain; [1]): -0.2946
Sequence: DRLTVYIDRVR [LMNA_Y45_A43T]

Screen (c-Abl kinase domain; [1]): 2.325
Sequence: DRQASYLDKVR [KRT17_Y98_L95Q]

Sequence: EAAFVYVISSA [WNT4_Y113_A114V]
Screen (c-Src kinase domain; [3]): -2.147 | Screen (c-Abl kinase domain; [4]): 1.673

Screen (Fer kinase domain; [2]): 2.885
Sequence: EACPSYSHVVL [CHST6_Y168_R166P]

Screen (Fer kinase domain; [2]): 0.5368 | Screen (EPHB2 kinase domain; [6]): 0.4332
Sequence: EGTATYAAAIL [JUP_Y644_V648I]

Screen (Fer kinase domain; [2]): 1.939 | Screen (c-Abl kinase domain; [1]): 2.749
Sequence: FDNPIYQKTTE [LDLR_Y828_V827I]

Screen (EPHB1 kinase domain): -0.7762
Sequence: FEKFLYFLPAS [DYNC2H1_Y346_H341Y_YF]

Sequence: FFLGAYDRFLP [SLC22A5_Y486_V481F_YF]
Screen (EPHB2 kinase domain; [6]): -0.4331 | Screen (c-Src kinase domain; [3]): -0.1466 | Screen (c-Abl kinase domain; [4]): -0.3891

Sequence: FGCGMYSHLQG [LGR4_Y848_D844G_YF]
Screen (Fer kinase domain; [2]): -1.105 | Screen (c-Src kinase domain; [5]): -0.3661

Sequence: FIIFIYAMKKK [SLCO1B1_Y645_L643F_YF]
Screen (c-Src kinase domain; [3]): 2.408

Sequence: FISLIYTNFEV [GSTP1_Y109_A114V_YF]
Screen (Fer kinase domain; [2]): 1.457 | Screen (c-Src kinase domain; [5]): 0.2277 | Screen (c-Abl kinase domain; [1]): 1.388

Screen (c-Abl kinase domain; [1]): -0.3809
Sequence: FKGIVYSVSSD [DCX_Y70_A71S]

Screen (c-Abl kinase domain; [1]): -0.568
Sequence: FLAVGYHMPHI [IDS_Y225_K227M]

Sequence: FLENFYDLEKD [MMP3_Y42_K45E_YF]
Screen (c-Src kinase domain; [5]): 0.2474

Screen (c-Abl kinase domain; [4]): 0.751
Sequence: FSGQVYRQRRK [TH_Y230_D227G]

Sequence: FSTPPYLLEAA [BRIP1_Y921_S919P_YF]
Screen (c-Src kinase domain; [5]): -1.274

Sequence: GADAIYDHVNE [UQCR10_Y44_I47V]
Screen (Fer kinase domain; [7]): 0.2964 | Screen (EPHB2 kinase domain; [8]): 0.825 | Screen (c-Src kinase domain; [3]): -0.3881

Screen (Fer kinase domain; [2]): 1.219
Sequence: GEEIKYMLWLL [OTC_Y55_S60L]

Screen (variant relative to reference peptide, measured in the pTyr-Var library screen) (EPHB1 kinase domain): -2.109
Sequence: GESKDYALHAG [SVIL_Y185_V189A]

Sequence: GESLTYVSTTF [C1orf162_Y120_A121V]
Screen (c-Src kinase domain; [5]): -2.006

Sequence: GGSDCYGSLRP [MYLK_Y846_R845C]
Screen (c-Src kinase domain; [3]): 2.609

Screen (c-Abl kinase domain; [1]): 1.393
Sequence: GMKIVYVFVKK [DNAI2_Y5_E2K_YF]

Screen (Fer kinase domain; [2]): 0.4548
Sequence: GQDLLYEDEDL [PACS1_Y303_F302L]

Sequence: HFPDVYAWEQL [ALX3_Y181_R183W_YF]
Screen (Fer kinase domain; [2]): 4.265 | Screen (c-Src kinase domain; [5]): 2.591

Screen (EPHB2 kinase domain; [6]): 1.141
Sequence: HNQDDYSFPSR [LDLR_Y845_G844D_YF]

Screen (variant relative to reference peptide, measured in the pTyr-Var library screen) (EPHB1 kinase domain): -0.4743
Sequence: HVKHNYECLVF [XRCC5_Y416_I412V_YF]

Screen (EPHB2 kinase domain; [8]): -1.317
Sequence: IGMLIYFARKA [VCAM1_Y718_I716L]

Screen (Fer kinase domain; [7]): 0.543 | Screen (c-Abl kinase domain; [4]): 2.296
Sequence: IVRSLYEDVED [VHL_Y185_L188V]

Screen (c-Abl kinase domain; [4]): 3.304
Sequence: KAWTIYHPEDS [ZBP1_Y165_R166H]

Screen (variant relative to reference peptide, measured in the pTyr-Var library screen) (EPHB1 kinase domain): -3.574
Sequence: KKFPDYIQSAM [SGMS2_Y59_I62S_YF]

Screen (c-Abl kinase domain; [4]): -1.969
Sequence: KLSHLYQDHMQ [WNT5A_Y86_C83S]

Screen (Fer kinase domain; [2]): -1.007
Sequence: KNKELYSDPFD [PDE10A_Y300_L303P]

Sequence: LADKPYTFEFF [FXN_Y118_D122Y_YF]
Screen (Fer kinase domain; [2]): -0.3661 | Screen (EPHB2 kinase domain; [6]): -0.8967 | Screen (c-Src kinase domain; [5]): -0.4395

Sequence: LDFPEYNGVDR [CASQ1_Y43_D44N]
Screen (c-Src kinase domain; [5]): 0.514

Sequence: LERFIYNRQEF [HLA-DPB1_Y59_E62Q_YF]
Screen (c-Src kinase domain; [5]): -1.248

Sequence: LESILYESSVV [TRPV4_Y91_T89I]
Screen (Fer kinase domain; [7]): -0.3592 | Screen (c-Src kinase domain; [3]): -0.6958

Sequence: LFLALYTGLVR [PIGB_Y402_H407R]
Screen (c-Src kinase domain; [3]): -0.3512

Screen (EPHB2 kinase domain; [6]): 0.6291
Sequence: LGKLTYPVGFW [NTHL1_Y177_I176T]

Screen (EPHB2 kinase domain; [6]): -1.099
Sequence: LIGRGYDDPEV [HSPA9_Y128_R127G]
